In ChEMBL document CHEMBL3046079, “Synthesis, herbicidal activity, and mode of action of IR 5790” (J Agric Food Chem, 2001) one finds solubility and fold change (FC) data, which are given here for 3 compounds.

Data set [1] is described as follows: Aqueous solubility of the compound. The format is physicochemical. The note with it: water.
Data set [2] in a line: Solubility of the compound in organis solvent. It counts as physicochemical.
Data set [3] deals with T1, Putative protoporphyrinogen IX oxidase (Cucumis sativus) (UniProt C6L817).
T1 sequence (whole entry): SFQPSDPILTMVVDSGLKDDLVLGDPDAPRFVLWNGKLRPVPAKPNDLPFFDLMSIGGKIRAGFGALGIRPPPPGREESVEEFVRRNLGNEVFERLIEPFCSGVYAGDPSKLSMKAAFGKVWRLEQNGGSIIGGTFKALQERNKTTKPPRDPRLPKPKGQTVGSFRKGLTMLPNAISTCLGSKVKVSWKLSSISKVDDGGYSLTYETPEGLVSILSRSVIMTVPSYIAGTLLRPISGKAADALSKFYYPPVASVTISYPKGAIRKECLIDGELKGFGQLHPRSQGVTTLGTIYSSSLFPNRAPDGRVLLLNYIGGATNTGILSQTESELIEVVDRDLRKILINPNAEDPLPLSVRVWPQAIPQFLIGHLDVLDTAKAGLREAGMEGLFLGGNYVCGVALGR
In words: Inhibition of protoporphyrin oxidase in Cucumis sativus (cucumber) cotyledon disc assessed as increase in extraplastidic protoporphyrin 9 accumulation at 10 uM incubated in dim light for 2 hr by HPLC analysis relative to control.

Data set [4] deals with T1, Putative protoporphyrinogen IX oxidase (Cucumis sativus). In words: Inhibition of protoporphyrin oxidase in Cucumis sativus (cucumber) cotyledon disc assessed as increase in extraplastidic protoporphyrin 9 accumulation at 100 uM incubated in dim light for 2 hr by HPLC analysis relative to control.

≈ marks a conversion by molar mass, not a printed value.

As to `CC(C)Oc1cc(-n2nc(C(C)(C)C)oc2=O)c(Cl)cc1Cl` [OXADIAZON], the solubility (usually the dissolved amount per volume that the medium holds) in data set [1] is 0.7 µg/mL (≈ 2.03 µM); in data set [2] it was over 250000 µg/mL.

Regarding `COC(=O)c1cc(Oc2ccc(C(F)(F)F)cc2Cl)ccc1[N+](=O)[O-]`, the fold change (FC) worked out at 369 in data set [3] and 390 in data set [4].

`C#CCOc1cc(-n2nc(C(C)(C)C)oc2=O)c(Cl)cc1Cl` [OXADIARGYL]: the solubility in data set [1] is 0.37 µg/mL (≈ 1.08 µM); in data set [2], over 250000 µg/mL.
